Assay results taken from patent US9302999B2, “Substituted triazoles as herbicides” (E. I. DU PONT DE NEMOURS AND COMPANY, priority 2012, dated 2016).
Where two headings read alike, the source gives them in different places.

What was measured:
Format in all cases: in vivo
[1] = system: goosegrass (Eleusine indica); experiment: Test C pre-/postemergence: goosegrass
From the text: Seeds of plant species selected from blackgrass (Alopecurus myosuroides), bromegrass, downy (downy bromegrass, Bromus tectorum), foxtail, green (green foxtail, Setaria viridis), ryegrass, Italian (Italian ryegrass, Lolium multiflorum), winter wheat (Triticum aestivum), wild oat (Avena fatua), galium (catchweed bedstraw, Galium aparine), bermudagrass (Cynodon dactylon), surinam grass (Brachiaria decumbens), cocklebur (common cocklebur, Xanthium strumarium), corn (Zea mays), large crabgrass (Digitaria sanguinalis), woolly cupgrass (Eriochloa villosa), foxtail, giant (giant foxtail, Setaria faberii), goosegrass (Eleusine indica), johnsongrass (Sorghum halepense), kochia (Kochia scoparia), lambsquarters (Chenopodium album), morningglory (Ipomoea coccinea), nightshade (eastern black nightshade, Solanum ptycanthum), nutsedge, yellow (yellow nutsedge, Cyperus esculentus), pigweed (Amaranthus retroflexus), ragweed (common ragweed, Ambrosia elation), soybean (Glycine max), common (oilseed) sunflower (Helianthus annuus), Russian thistle (Salsola kali) and velvetleaf (Abutilon theophrasti) were planted into a blend of loam soil and sand and treated preemergence with test chemicals formulated in a non-phytotoxic solvent mixture which included a surfactant.
At the same time, plants selected from these crop and weed species and also barley (winter barley, Hordeum vulgare), canarygrass (Phalaris minor), chickweed (common chickweed, Stellaria media) windgrass (Apera spica-venti) and deadnettle (henbit deadnettle, Lamium amplexicaule) were planted in pots containing Redi-Earth® planting medium (Scotts Company, 14111 Scottslawn Road, Marysville, Ohio 43041) comprising spaghnum peat moss, vermiculite, wetting agent and starter nutrients and treated with postemergence applications of test chemicals formulated in the same manner. Plants ranged in height from 2 to 18 cm (1- to 4-leaf stage) for postemergence treatments.
(§1) Treated plants and controls were maintained in a greenhouse for 13 to 15 days, after which time all species were compared to controls and visually evaluated. Plant response ratings, summarized in Table C, are based on a scale of 0 to 100 where 0 is no effect and 100 is complete control. A dash (-) response means no test result.

[2] = system: barnyardgrass (Echinochloa crus-galli); experiment: Test C flooded paddy test: barnyardgrass; conditions: scale 0 to 100 (0 no effect, 100 complete control); for pest or weed control at 125 g/ha / pest or weed control at 250 g/ha / pest or weed control at 31 g/ha / pest or weed control at 62 g/ha: Echinochloa crus-galli, read-out: Plant response rating, Barnyardgrass
How it was run: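 Greenhouse plants treated at the 2-leaf stage by dosing the flood water (3 cm depth, maintained) were compared with controls after 13 to 15 days and rated 0 to 100, where 100 means complete control; a dash marks no test result.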

[3] = system: foxtail, green (green foxtail, Setaria viridis); experiment: Test D pre-/postemergence: foxtail, green
From the text: (§2) Seeds of plant species selected from bluegrass (annual bluegrass, Poa annua), blackgrass (Alopecurus myosuroides), canarygrass (Phalaris minor), chickweed (common chickweed, Stellaria media), galium (catchweed bedstraw, Galium aparine), bromegrass, downy (downy bromegrass, Bromus tectorum), field poppy (Papaver rhoeas), field violet (Viola arvensis), foxtail, green (green foxtail, Setaria viridis), deadnettle (henbit deadnettle, Lamium amplexicaule), ryegrass, Italian (Italian ryegrass, Lolium multiflorum), kochia (Kochia scoparia), lambsquarters (Chenopodium album), oilseed rape (Brassica napus), pigweed (Amaranthus retroflexus), Russian thistle (Salsola iberica), chamomile (scentless chamomile, Matricaria inodora), speedwell (bird's-eye speedwell, Veronica persica), barley, spring (spring barley, Hordeum vulgare), wheat, spring (spring wheat, Triticum aestivum), buckwheat, wild (wild buckwheat, Polygonum convolvulus), mustard, wild (wild mustard, Sinapis arvensis), oat, wild (wild oat, Avena fatua), radish, wild (wild radish, Raphanus raphanistrum), windgrass (Apera spica-venti), barley, winter (winter barley, Hordeum vulgare), and wheat, winter (winter wheat, Triticum aestivum) were planted into a silt loam soil and treated preemergence with test chemicals formulated in a non-phytotoxic solvent mixture which included a surfactant. At the same time, these same crop and weed species were planted in pots containing the planting medium comprising spaghnum peat moss, vermiculite, wetting agent and starter nutrients and treated with postemergence applications of the test chemicals formulated in the same manner. Plants ranged in height from 2 to 18 cm (1- to 4-leaf stage).
as §1, with “controlled growth environment” for “greenhouse”, “14” for “13”, “21 days” for “15 days,”, “D,” for “C,”

[4] = system: oat, wild (wild oat, Avena fatua); experiment: Test D pre-/postemergence: oat, wild
From the text: as §2
as §1, with “controlled growth environment” for “greenhouse”, “14” for “13”, “21 days” for “15 days,”, “D,” for “C,”

[5] = system: lambsquarters (Chenopodium album); experiment: Test D pre-/postemergence: lambsquarters
From the text: as §2
as §1, with “controlled growth environment” for “greenhouse”, “14” for “13”, “21 days” for “15 days,”, “D,” for “C,”

[6] = system: bluegrass (annual bluegrass, Poa annua); experiment: Test D pre-/postemergence: bluegrass
From the text: as §2
as §1, with “controlled growth environment” for “greenhouse”, “14” for “13”, “21 days” for “15 days,”, “D,” for “C,”

[7] = Postemergence, 31 g ai/ha, scale 0 to 100 (0 no effect, 100 complete control)
[8] = Postemergence, 62 g ai/ha, scale 0 to 100 (0 no effect, 100 complete control)
[9] = Postemergence, 125 g ai/ha, scale 0 to 100, 0 no effect, 100 complete control
[10] = Flood (flooded paddy test), 125 g ai/ha, visual rating after 13 to 15 days
[11] = Flood (flooded paddy test), 250 g ai/ha, visual rating after 13 to 15 days
[12] = Postemergence, 250 g ai/ha, scale 0 to 100 (0 no effect, 100 complete control)
[13] = Postemergence, 16 g ai/ha, scale 0 to 100
[14] = Preemergence, 16 g ai/ha, scale 0 to 100 (0 no effect, 100 complete control)
[15] = Preemergence, 31 g ai/ha, scale 0 to 100 (0 no effect, 100 complete control)
[16] = Preemergence, 62 g ai/ha, scale 0 to 100
[17] = Preemergence, 125 g ai/ha, scale 0 to 100
[18] = Preemergence, 250 g ai/ha, scale 0 to 100
[19] = Postemergence, 250 g ai/ha, scale 0 to 100
[20] = Preemergence, 31 g ai/ha, scale of 0 to 100, 0 is no effect, 100 is complete control
[21] = Preemergence, 62 g ai/ha, scale of 0 to 100, 0 is no effect, 100 is complete control
[22] = Preemergence, 125 g ai/ha, scale 0 to 100, 0 no effect, 100 complete control
[23] = Preemergence, 250 g ai/ha, scale 0 to 100, 0 no effect, 100 complete control
[24] = Flood (flooded paddy test), 62 g ai/ha, visual rating after 13 to 15 days

SMILES: Cc1nn(-c2ccc(C(F)(F)F)cc2)nc1Cc1cccc(C(F)(F)F)c1 [Compound 124]
- Plant response rating, Goosegrass ([1]; Postemergence, 16 g ai/ha, scale 0 to 100, 0 no effect, 100 complete control): 25
- Plant response rating, Goosegrass [1, 7]: 45
- Plant response rating, Goosegrass [1, 8]: 55
- Plant response rating, Goosegrass [1, 9]: 65
- Plant response rating, Barnyardgrass [2, 10]: 50
- Plant response rating, Barnyardgrass [2, 11]: 50
- Plant response rating, Barnyardgrass ([2]; Flood, 31 g ai/ha): 20
- Plant response rating, Barnyardgrass ([2]; Flood, 62 g ai/ha): 40

SMILES: CCc1nn(-c2ccc(C(F)(F)F)cc2)nc1Oc1cccc(OC(F)(F)F)c1 [Compound 125, 4-ethyl-5-[3-(trifluoromethoxy)phenoxy]-2-[4-(trifluoromethyl)phenyl]-2H-1,2,3-triazole]
- pest or weed control at 125 g/ha [2, 10]: 0%
- pest or weed control at 250 g/ha [2, 11]: 10%
- pest or weed control at 31 g/ha ([2]; Flood, 31 g ai/ha): 0%
- pest or weed control at 62 g/ha ([2]; Flood, 62 g ai/ha): 0%

SMILES: Cc1nn(-c2ccc(F)cc2)nc1Oc1ccnc(C(F)(F)F)c1 [Compound 129, 4-[[2-(4-fluorophenyl)-5-methyl-2H-1,2,3-triazol-4-yl]oxy]-2-(trifluoromethyl)pyridine]
- Plant response rating: Foxtail, Green [3, 7]: 35
- Plant response rating: Foxtail, Green [3, 8]: 85
- Plant response rating: Foxtail, Green [3, 9]: 95
- Plant response rating: Foxtail, Green [3, 12]: 100
- Plant response rating, Foxtail, Green [3, 13]: 35
- Plant response rating, Foxtail, Green [3, 14]: 5
- Plant response rating, Foxtail, Green [3, 15]: 90
- Plant response rating, Foxtail, Green [3, 16]: 100
- Plant response rating, Foxtail, Green [3, 17]: 100
- Plant response rating, Foxtail, Green [3, 18]: 100
- Plant response rating: Oat, Wild [4, 7]: 10
- Plant response rating: Oat, Wild [4, 8]: 10
- Plant response rating: Oat, Wild [4, 9]: 20
- Plant response rating: Oat, Wild [4, 12]: 25
- Plant response rating, Oat, Wild [4, 13]: 10
- Plant response rating, Oat, Wild [4, 14]: 0
- Plant response rating, Oat, Wild [4, 15]: 0
- Plant response rating, Oat, Wild [4, 16]: 5
- Plant response rating, Oat, Wild [4, 17]: 55
- Plant response rating, Oat, Wild [4, 18]: 100
- Plant response rating, Goosegrass [1, 7]: 15
- Plant response rating, Goosegrass [1, 8]: 25
- Plant response rating, Goosegrass [1, 9]: 30
- Plant response rating, Goosegrass [1, 19]: 55
- Plant response rating, Goosegrass [1, 20]: 98
- Plant response rating, Goosegrass [1, 21]: 98
- Plant response rating, Goosegrass [1, 22]: 98
- Plant response rating, Goosegrass [1, 23]: 98
- pest or weed control at 125 g/ha [2, 10]: 80%
- pest or weed control at 250 g/ha [2, 11]: 85%
- pest or weed control at 31 g/ha ([2]; Flood, 31 g ai/ha): 55%
- pest or weed control at 62 g/ha ([2]; Flood, 62 g ai/ha): 75%
- Plant response rating: Lambsquarters [5, 7]: 85
- Plant response rating: Lambsquarters [5, 8]: 95
- Plant response rating: Lambsquarters [5, 9]: 100
- Plant response rating: Lambsquarters [5, 12]: 100
- Plant response rating, Lambsquarters [5, 13]: 85
- Plant response rating, Lambsquarters [5, 14]: 0
- Plant response rating, Lambsquarters [5, 15]: 80
- Plant response rating, Lambsquarters [5, 16]: 90
- Plant response rating, Lambsquarters [5, 17]: 90
- Plant response rating, Lambsquarters [5, 18]: 100
- Plant response rating: Bluegrass [6, 7]: 10
- Plant response rating: Bluegrass [6, 8]: 20
- Plant response rating: Bluegrass [6, 9]: 60
- Plant response rating: Bluegrass [6, 12]: 70
- Plant response rating, Bluegrass [6, 13]: 10
- Plant response rating, Bluegrass [6, 14]: 0
- Plant response rating, Bluegrass [6, 15]: 0
- Plant response rating, Bluegrass [6, 16]: 85
- Plant response rating, Bluegrass [6, 17]: 100
- Plant response rating, Bluegrass [6, 18]: 100

SMILES: Cc1nn(-c2ccc(C(F)(F)F)cc2)nc1Cc1ccnc(C(F)(F)F)c1 [Compound 47, 4-[[5-methyl-2-[4-(trifluoromethyl)phenyl]-2H-1,2,3-triazol-4-yl]methyl]-2-(trifluoromethyl)pyridine]
- Plant response rating, Goosegrass [1, 7]: 5
- Plant response rating, Goosegrass [1, 8]: 35
- Plant response rating, Goosegrass [1, 9]: 70
- Plant response rating, Goosegrass [1, 19]: 75
- Plant response rating, Goosegrass [1, 20]: 98
- Plant response rating, Goosegrass [1, 21]: 100
- Plant response rating, Goosegrass [1, 22]: 100
- Plant response rating, Goosegrass [1, 23]: 100
- pest or weed control at 62 g/ha [2, 24]: 50%
- pest or weed control at 125 g/ha [2, 10]: 80%
- pest or weed control at 250 g/ha [2, 11]: 80%
- pest or weed control at 31 g/ha ([2]; Flood, 31 g ai/ha): 40%

SMILES: COc1nn(-c2ccc(C(F)(F)F)cc2)nc1Cn1ccc(C(F)(F)F)n1 [Compound 17, 4-methoxy-2-[4-(trifluoromethyl)phenyl]-5-[[3-(trifluoromethyl)-1H-pyrazol-1-yl]methyl]-2H-1,2,3-triazole]
- pest or weed control at 62 g/ha [2, 24]: 20%
- pest or weed control at 125 g/ha [2, 10]: 40%
- pest or weed control at 250 g/ha [2, 11]: 45%
- pest or weed control at 31 g/ha ([2]; Flood, 31 g ai/ha): 0%
